Experimental data from US20260297042A1, “BIARYLAMIDE DERIVATIVES AND THEIR USE AS PKMYT1 INHIBITORS” (CANCER RESEARCH TECHNOLOGY LIMITED, priority 2023, published 2026).

How the values were obtained:
WEE1 = molecular target: T1, WEE1 (Homo sapiens, UniProt P30291); experiment: Selectivity versus WEE1 assay (ADP-Glo enzymatic assay); type: biochemical; details: for IC50: ADP-Glo; for PKMYT1 vs. WEE1 selectivity: fold difference in selectivity for PKMYT1 over WEE1
T1 construct: purchased Thermo Fisher PR7373A
T1 sequence (P30291 whole entry): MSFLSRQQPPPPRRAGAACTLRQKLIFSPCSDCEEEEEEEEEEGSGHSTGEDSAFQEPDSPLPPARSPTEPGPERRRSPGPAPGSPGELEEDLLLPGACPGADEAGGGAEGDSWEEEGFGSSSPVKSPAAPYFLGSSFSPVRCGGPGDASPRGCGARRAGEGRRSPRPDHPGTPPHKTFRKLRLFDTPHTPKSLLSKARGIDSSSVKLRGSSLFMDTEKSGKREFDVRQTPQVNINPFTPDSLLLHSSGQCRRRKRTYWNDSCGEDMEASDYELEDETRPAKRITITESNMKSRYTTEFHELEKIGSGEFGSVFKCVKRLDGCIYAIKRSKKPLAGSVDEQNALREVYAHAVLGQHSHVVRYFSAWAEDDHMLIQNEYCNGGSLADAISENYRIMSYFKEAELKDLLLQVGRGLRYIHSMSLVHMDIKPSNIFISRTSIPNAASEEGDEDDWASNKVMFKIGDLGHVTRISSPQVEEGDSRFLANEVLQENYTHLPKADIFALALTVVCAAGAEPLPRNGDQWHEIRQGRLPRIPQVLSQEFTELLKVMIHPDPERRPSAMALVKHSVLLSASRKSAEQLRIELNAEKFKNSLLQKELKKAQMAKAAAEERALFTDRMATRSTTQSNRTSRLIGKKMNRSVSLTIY
How it was run: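 Compounds were pre-dispensed, enzyme (15 nM final) was added in pH 7.5 HEPES buffer, and ATP ([…]) then started a 60 min incubation at 26° C. Afterwards ADP-Glo reagents were added in turn and luminescence was measured to derive IC50 values.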

[1] = molecular target: T2, Cellular PKMYT1 Biomarker CDK1 pT14 (Homo sapiens, UniProt Q99640); experiment: Inhibition of cellular PKMYT1 biomarker CDK1 pT14 in OVCAR 3 cells (immunoblot); type: cell-based; details: 20 hours incubation
T2 construct: read-out CDK1 phospho-T14 immunoblot
T2 sequence (Q99640 1-499): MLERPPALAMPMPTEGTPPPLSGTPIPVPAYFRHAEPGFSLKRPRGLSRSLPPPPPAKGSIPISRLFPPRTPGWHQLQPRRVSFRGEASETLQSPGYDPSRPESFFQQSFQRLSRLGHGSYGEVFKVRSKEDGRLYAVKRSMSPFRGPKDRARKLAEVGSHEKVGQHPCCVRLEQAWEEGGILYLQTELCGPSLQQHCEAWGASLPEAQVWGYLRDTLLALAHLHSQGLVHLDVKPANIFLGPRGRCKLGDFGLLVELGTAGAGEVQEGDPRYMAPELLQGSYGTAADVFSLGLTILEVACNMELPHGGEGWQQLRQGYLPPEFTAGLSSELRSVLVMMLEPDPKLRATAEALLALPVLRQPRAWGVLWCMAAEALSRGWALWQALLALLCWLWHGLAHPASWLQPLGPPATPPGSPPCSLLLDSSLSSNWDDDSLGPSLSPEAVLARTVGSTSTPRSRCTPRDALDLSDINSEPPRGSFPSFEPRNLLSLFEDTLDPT
How it was run: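 Confluent OVCAR 3 cells treated with a compound concentration range for 20 h at 37 °C. Lysates analysed by automated capillary immunoblot for CDK1 phospho-T14, with vinculin, fluorescence detection; IC50 by regression.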

OVCAR 3 cells = experiment: Cancer cell line proliferation assay, ATP-based cell viability (Cell Titre Glow), OVCAR 3 (CCNE1-amplified); details: KYSE30 (normal CCNE1) GI50 vs. OVCAR 3 (CCNE1-amplified) GI50
How it was run: (§1)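 Sensitivity to PKMYT1 inhibitors was measured by ATP-based luminescence (CellTiter-Glo) as the proliferation endpoint. GI50, the concentration giving 50% growth inhibition, was estimated from curve fits.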

KYSE-30 cells = experiment: Cancer cell line proliferation assay, ATP-based cell viability (Cell Titre Glow), KYSE-30 (normal CCNE1); details: Homo sapiens, KYSE-30 cells (normal CCNE1), concentration that achieves 50% cell growth proliferation inhibition, read-out: KYSE30 Gl50
How it was run: as §1

Human PKMYT1 = molecular target: T3, Human PKMYT1 (Homo sapiens, UniProt Q99640); experiment: PKMYT1 biochemical ADP-Glo enzymatic assay; details: ADP-Glo
T3 construct: Human PKMYT1 75-362 was cloned as a TEV cleavable 6xHis fusion; 6xHis (TEV cleavable) (cleaved yes); made in house; host or cells: bacterial cells
T3 sequence (Q99640 75-362): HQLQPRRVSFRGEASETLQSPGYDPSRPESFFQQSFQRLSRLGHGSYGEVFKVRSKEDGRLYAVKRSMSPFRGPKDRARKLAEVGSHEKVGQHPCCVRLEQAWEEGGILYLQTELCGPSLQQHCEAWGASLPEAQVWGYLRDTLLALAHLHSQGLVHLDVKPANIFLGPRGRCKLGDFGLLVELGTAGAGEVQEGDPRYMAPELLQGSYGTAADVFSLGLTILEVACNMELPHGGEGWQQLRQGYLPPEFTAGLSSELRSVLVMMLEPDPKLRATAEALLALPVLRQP
How it was run: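 Compounds were titrated over 10 points (3-fold steps), then 15 nM purified PKMYT1 kinase domain (aa 75-362) and 500 µM ATP were added in pH 7.5 HEPES buffer. After 60 min at 26 °C, remaining ATP was depleted and ADP converted to luminescence for IC50 fitting.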

[2] = 15 nM WEE1, 60 minutes at 26° C., banded
[3] = banded, ">N" = at least in this band but could be higher
[4] = 15 nM PKMYT1 kinase domain, 500 µM ATP, 60 minutes at 26° C., banded
[5] = PKMYT1 kinase domain 15 nM, banded values

Row | SMILES | IC50 (WEE1; [2]) [µM] | PKMYT1 vs. WEE1 selectivity (WEE1; [3]) | IC50 [1] [µM] | IC50 (Human PKMYT1; [4]) [µM] | IC50 (WEE1; WEE1 15 nM, banded values) [µM] | PKMYT1 vs. WEE1 selectivity (WEE1; banded) | IC50 (Human PKMYT1; [5]) [µM] | Selectivity ratio KYSE30 Gl50 vs. OVCAR3 Gl50 (OVCAR 3 cells) | GI50 (KYSE-30 cells) [µM]
1 | Cc1ccc(O)c(C)c1NC(=O)c1cnc(Nc2nccc3ccc(F)cc23)s1 [BAA-303, 2-((7-fluoroisoquinolin-1-yl)amino)-N-(3-hydroxy-2,6-dimethylphenyl)thiazole-5-carboxamide] | > 11 | Y (1000-5000 fold) | < 0.1 | < 0.05 |  |  |  | X (3-20 fold) | 0.5 to 5
2 | Cc1ccc(O)c(C)c1NC(=O)c1cnc(Nc2cccc(C3CC3)n2)s1 [BAA-409, 2-((6-cyclopropylpyridin-2-yl)amino)-N-(3-hydroxy-2,6-dimethylphenyl)thiazole-5-carboxamide] |  |  | < 0.1 |  | 1 to 11 | X (100-<1000 fold) | < 0.05 | Y (>20 fold) | 0.5 to 5
3 | CCN(CC)C(=O)C(C)n1cc(C)c(Nc2ncc(C(=O)Nc3c(C)ccc(O)c3C)s2)n1 (stereo not drawn) [BAA-510, 2-((1-(1-(diethylamino)-1-oxopropan-2-yl)-4-methyl-1H-pyrazol-3-yl)amino)-N-(3-hydroxy-2,6-dimethylphenyl)thiazole-5-carboxamide] |  |  | < 0.1 |  | 1 to 11 | X (100-<1000 fold) | < 0.05 | Y (>20 fold) | > 5
4 | COC[C@H]1CCCN1C(=O)Cn1cc(C)c(Nc2ncc(C(=O)Nc3c(C)ccc(O)c3C)s2)n1 [BAA-599, N-(3-Hydroxy-2,6-dimethyl-phenyl)-2-[[1-[2-[(2R)-2-(methoxymethyl)pyrrolidin-1-yl]-2-oxo-ethyl]-4-methyl-pyrazol-3-yl]amino]thiazole-5-carboxamide] |  |  | 0.1 to 1 |  | 1 to 11 | X (100-<1000 fold) | < 0.05 | Y (>20 fold) | > 5
5 | Cc1cn(CCF)nc1Nc1ncc(C(=O)Nc2c(C)ccc(O)c2Br)s1 [BAA-565, N-(2-bromo-3-hydroxy-6-methylphenyl)-2-((1-(2-fluoroethyl)-4-methyl-1H-pyrazol-3-yl)amino) thiazole-5-carboxamide] |  |  | < 0.1 |  | 1 to 11 | X (100-<1000 fold) | < 0.05 | Y (>20 fold) | > 5
6 | Cc1ccc(N[S+]([O-])C(C)(C)C)nc1Nc1ncc(C(=O)Nc2c(C)ccc(O)c2C)s1 (stereo not drawn) [BAA-340, 2-((6-((tert-Butylsulfinyl)amino)-3-methylpyridin-2-yl)amino)-N-(3-hydroxy-2,6-dimethylphenyl)thiazole-5-carboxamide] | 0.05 to 1 | V (3-<10 fold) | 0.1 to 1 | < 0.05 |  |  |  | Y (>20 fold) | 0.5 to 5
7 | Cc1cn(C2CCC2)nc1Nc1ncc(C(=O)Nc2c(C)ccc(O)c2C)s1 [BAA-270, 2-((1-cyclobutyl-4-methyl-1H-pyrazol-3-yl)amino)-N-(3-hydroxy-2,6-dimethylphenyl)thiazole-5-carboxamide] | 1 to 11 | X (100-<1000 fold) | < 0.1 | < 0.05 |  |  |  | Y (>20 fold) | < 0.5
8 | CCn1nc(Nc2ncc(C(=O)Nc3c(C)ccc(O)c3C)s2)c2cc(F)ccc21 [BAA-459, 2-((1-ethyl-5-fluoro-1H-indazol-3-yl)amino)-N-(3-hydroxy-2,6-dimethylphenyl)thiazole-5-carboxamide] |  |  | < 0.1 |  | > 11 | X (100-<1000 fold) | 0.05 to 1 | Y (>20 fold) | > 5
9 | Cc1ccc(O)c(C)c1NC(=O)c1cnc(Nc2ccc(N3CCC(F)(F)CC3)cn2)s1 [BAA-308, 2-((5-(4,4-difluoropiperidin-1-yl)pyridin-2-yl)amino)-N-(3-hydroxy-2,6-dimethylphenyl)thiazole-5-carboxamide] | > 11 | X (100-<1000 fold) | < 0.1 | 0.05 to 1 |  |  |  | X (3-20 fold) | 0.5 to 5

Continued, in another order:

Row | IC50 (WEE1; [2]) [µM] | PKMYT1 vs. WEE1 selectivity (WEE1; [3]) | IC50 [1] [µM] | IC50 (Human PKMYT1; [4]) [µM] | IC50 (WEE1; WEE1 15 nM, banded values) [µM] | PKMYT1 vs. WEE1 selectivity (WEE1; banded) | IC50 (Human PKMYT1; [5]) [µM] | SMILES | Selectivity ratio KYSE30 Gl50 vs. OVCAR3 Gl50 (OVCAR 3 cells) | GI50 (KYSE-30 cells) [µM]
10 | > 11 | X (100-<1000 fold) | < 0.1 | < 0.05 |  |  |  | Cc1cn(S(=O)(=O)c2ccccc2)nc1Nc1ncc(C(=O)Nc2c(C)ccc(O)c2C)s1 [BAA-379, N-(3-Hydroxy-2,6-dimethylphenyl)-2-((4-methyl-1-(phenylsulfonyl)-1H-pyrazol-3-yl)amino)thiazole-5-carboxamide] | X (3-20 fold) | > 5
11 |  |  | < 0.1 |  | > 11 | Z (>5000 fold) | < 0.05 | CCN(C(=O)Cc1cccc(Nc2ncc(C(=O)Nc3c(C)ccc(O)c3C)s2)n1)C1CC1 [BAA-426, 2-((6-(2-(Cyclopropyl(ethyl)amino)-2-oxoethyl)pyridin-2-yl)amino)-N-(3-hydroxy-2,6-dimethylphenyl)thiazole-5-carboxamide] | Y (>20 fold) | 0.5 to 5
12 |  |  | < 0.1 |  | 0.05 to 1 | W (10-<100 fold) | < 0.05 | Cc1ccc(O)c(C)c1NC(=O)c1cnc(Nc2cc(N3CCOCC3)ncn2)s1 [BAA-571, N-(3-hydroxy-2,6-dimethylphenyl)-2-((6-morpholinopyrimidin-4-yl)amino)thiazole-5-carboxamide] | Y (>20 fold) | 0.5 to 5
13 |  |  | < 0.1 |  | > 11 | Y (1000-5000 fold) | < 0.05 | COc1ccc(F)c(Nc2ncc(C(=O)Nc3c(C)ccc(O)c3C)s2)n1 [BAA-425, 2-((3-fluoro-6-methoxypyridin-2-yl)amino)-N-(3-hydroxy-2,6-dimethylphenyl)thiazole-5-carboxamide] | Y (>20 fold) | 0.5 to 5
